The values below come from patent US8906868B2, “Aminoglycoside derivatives” (Rempex Pharmaceuticals, Inc., priority 2010, dated 2014).

The test system of data set [1] is rats. The data set is described as follows: Nephrotoxicity of test compounds in rats. As to conditions: once daily subcutaneous.
In data set [2] the test system is Enterobacter cloacae ECLM1000 ATCC 13047. The experiment in a line: MIC, representative strains. It counts as cell-based. As to conditions: ATCC13047, read-out: MIC Enterobacter cloacae ECLM1000 ATCC 13047. As for the experimental part: (§1) To compare microbiological activity of the test compounds, minimum inhibitory concentrations (MIC.s) were determined. Antibiotic MICs were obtained using the broth microdilution method according to Clinical and Laboratory Standards Institute (CLSI) approved guidelines (Methods for dilution antimicrobial susceptibility tests for bacteria that grow aerobically; approved standard—7th ed. CLSI document M7-A7. Clinical and Laboratory Standards Institute, Wayne, Pa., incorporated herein by reference in its entirety). Antibiotics were dissolved as specified by CLSI (Performance standards for antimicrobial susceptibility testing; Seventeenth informational supplement. CLSI document M100-S17. Clinical and Laboratory Standards Institute, Wayne, Pa., incorporated herein by reference in its entirety), and were serially diluted 2-fold in cation adjusted Mueller Hinton Broth (CaMHB) at 2× concentration. Bacterial inoculums were prepared in CaMHB by suspension of a colony from an agar plate that was prepared the previous day to obtain a final concentration of 5×10^5CFU/ml. The plates were incubated for 18 hours at 35° C. […] MIC.s were determined by reading the turbidity of plate wells using a SpectraMax Plus384 plate reader (Molecular Devices, Sunnyvale, Calif., USA) at 600 nm and were confirmed by visual inspection.

Data set [3] deals with various bacteria. The experiment in a line: MICs of 44 and 45, representative strains and strains expressing aminoglycoside modifying enzymes. It counts as cell-based. As to conditions: Tables 7 and 8, frequently. The procedure:
as §1

With `CN[C@@H]1C(O)[C@@H](OC2C(O)C(O[C@H]3O[C@H](CNC[C@@H](O)CO)CCC3N)[C@@H](N)C[C@H]2NC(=O)[C@@H](O)CN)OCC1(C)O` (stereo partly shown) [Compound 44], the “Histopathology Results After 7 days of Dosing” value in data set [1] (30 mg/kg/day) and in data set [1] (60 mg/kg/day) was “No change” each time. Further, the “Histopathology Results After 14 days of Dosing” value is reported as “No change” in data set [1] (30 mg/kg/day) and “Minimal Hyaline-droplet” in data set [1] (60 mg/kg/day). In addition, in data set [2], the MIC was below 1 µg/mL. The “fold more active than 45 (MIC)” value in data set [3] was 2- to 4 fold.

In the case of `CN[C@@H]1[C@@H](O)[C@@H](O[C@@H]2[C@@H](O)[C@H](O[C@H]3O[C@H](CNC[C@H](O)CO)CC[C@H]3N)[C@@H](N)C[C@H]2NC(=O)[C@@H](O)CN)OC[C@]1(C)O` [Compound 45, (S)-3-amino-N-((1R,2S,3S,4R,5S)-5-amino-4-((2R,3R,6S)-3-amino-6-(((S)-2,3-dihydroxypropylamino)methyl)tetrahydro-2H-pyran-2-yloxy)-2-((2R,3R,4R,5R)-3,5-dihydroxy-5-methyl-4-(methylamino)tetrahydro-2H-pyran-2-yloxy)-3-hydroxycyclohexyl)-2-hydroxypropanamide], the MIC in data set [2] is below 1 µg/mL.
